In patent US8664271B2, “Stabilized leukotriene B4 (LTB4) agent pharmaceutical formulation” (LTB4 Sweden AB, priority 2004, dated 2014):

Legend:
[1] = Forced degradation of ethanolic solutions of LTB4 (acid form and Na salt); format: physicochemical
Experimental: The ethanolic solution of LTB4 (acid form) (EtOH/water, 95/5) obtained from the manufacturer (Cascade Biochem, UK) was diluted with EtOH/water, 95/5 to generate ethanolic solutions of LTB4 (acid form) at 9 and 0.9 mg/ml. Ethanolic solutions of the sodium salt of LTB4 at 9 and 0.9 mg/ml were obtained by adding 1.05 equivalent of sodium hydroxide. Solutions of the sodium salt of LTB4 at the concentration of 9 and 0.9 mg/ml in 75/25 EtOH/10 mM glycine in water at pH 10.5 (sodium hydroxide), were obtained by mixing 3 volumes of solutions of the sodium salt of LTB4 at 12 and 1.2 mg/ml in EtOH/water, 95/5 with 1 volume of 40 mM glycine buffer at pH 10.5. Solutions were dispensed in 2 ml vials for storage under air in the dark at −80° C. and 40±5° C. for 17 months prior to reverse phase HPLC analysis of LTB4 and impurities as described in Example 1.

[2] = Pharmacokinetics of LTB4 in rats after i.v., i.j. and s.c. administration (plasma ELISA); format: in vivo, female Sprague-Dawley rats; conditions: rat
Experimental: In this example, the pharmacokinetics of LTB4 in rats following administration by three distinct routes, intravenous (i.v.), intra-jejunal (i.j.) and sub-cutaneous (s.c.) was investigated.
Three groups of three female Sprague-Dawley rats (weighing ˜250 g) were used; animals were fasted for 18 hours, anesthetised with ketamine/xylazine and their jugular veins were canulated to allow for repeated blood sampling. LTB4 was administered at the dose of 50 μg/kg at the dose volume of 4 ml/kg for all routes. Blood samples (0.5 ml/sample) where taken at 0, 0.5, 1, 2, 5, 15, 30, and 60 minutes following LTB4 injection. The blood samples where immediately anti-coagulated with EDTA and transferred into an ice-water bath until centrifugation for plasma isolation. Plasma samples were stored at −80° C. until assayed for LTB4 content using a commercial ELISA (Cayman Chemicals, Ann Arbor, Mich., USA). The i.v administration (15 sec. bolus) of LTB4 was done through the tail vein; for i.j. administration, LTB4 was directly injected in the jejunum after opening of the abdominal cavity; s.c. administration was done in the dorsal region.

impurity level ([1]; 0.9 mg/ml in 95/5 EtOH/water, 17 months at 40° C.): 62 % of AUC | level of impurities ([1]; 9.0 mg/ml in EtOH/water 95/5, 17 months at 40° C., AUC at 270 nm): 100 % of AUC | time of maximum plasma LTB4 level ([2]; i.j. administration, 50 μg/kg): 5 min | time of return of LTB4 plasma levels to baseline ([2]; i.j. administration, 50 μg/kg): 30 min | AUC for LTB4 plasma concentration, comparison of routes ([2]; i.v. injection, 50 μg/kg, compared with i.j. and s.c.): highest AUC | AUC for i.j. injection relative to that of i.v. LTB4 ([2]; in vivo, 50 ug/kg): 35%
Compound: CCCCC/C=C\C[C@@H](O)/C=C/C=C/C=C\[C@@H](O)CCCC(=O)O [LTB4, 5S,12R-dihydroxy-6,8,10,14(Z,E,E,Z)-eicosatetrae-noic acid]
